# In US20090208445A1, “Compositions Comprising Eucalyptol And/Or Ocimene And/Or Farnesol For Use As Bumblebee Pheromones” (QUEEN MARY & WESTFIELD COLLEGE, priority 2005, published 2009):
# Key:
# [1] = system: Bombus terrestris; assay: Behavioural effect of individual compounds on forager recruitment (foragers leaving the nest in search for food); format: in vivo; settings: 10 μl of 200 mg l-1 in acetone on filter paper in nest box lid every 5 min for 30 min vs preceding 30 min; 7 repeats, Wilcoxon test
# Procedure: All experiments were performed with lab-reared colonies of Bombus terrestris with 30-50 workers. A total of ten colonies were used. Each nest was contained in a wooden box (26 cm·14 cm·10 cm), which was connected to a foraging arena (40 cm·60 cm·30 cm) with a Plexiglas tube of 30 cm length. Nest box and foraging arena had transparent Plexiglas covers, so that the behaviour of the bees could be observed. The arena contained a feeder at certain times of the experiment (see below).
# To this end, 10 μl of solution of the individual compounds at 200 mg 1^−1 acetone, were dispensed onto a filter paper placed in a glass tube in the lid of the nest box. This was repeated every 5 minutes for half an hour, and numbers of foragers entering the flight arena in search for food were counted in 5 min intervals during the experimental half hour and in the preceding 30 min (control period). This experiment was repeated 7 times which each individual compound. In addition, 7 control runs were performed with acetone, to exclude the possibility that the solvent itself provoked a behavioural response. Tests were done in random sequence with three bumblebee colonies, with at least 4 h between tests on a single colony. None of the compounds were tested twice on the same day with the same colony.
# [2] = system: Bombus terrestris; assay: Mobilisation of individually marked foragers of a colony by eucalyptol; format: in vivo
# Procedure: To this end, all foragers were marked that arrived at an ad libitum sucrose feeder in a flight arena connected to a large nest (with >80 workers), over a period of two days. Bees were given individual number plates (Opalith). Then the colony was starved for 1 day, and on the next day, a sucrose feeder was inserted into the arena for one hour. After 30 min, the colony was exposed to eucalyptol as described above. Bees were caught immediately upon arrival, so that they could not provide feedback to the colony.
smiles,measurement,setting,value
"CC(C)=CCCC(C)=CCCC(C)=CCO [E,E-farnesol, 3,7,11-trimethyl-2,6,10-dodecatrien-1-ol]",Effect on numbers of foragers leaving the nest in search for food,[1],non-significant rise in activity
"CC12CCC(CC1)C(C)(C)O2 [Eucalyptol, 1,3,3-Trimethyl-2-oxabicyclo[2.2.2.]octane]",Time for the remaining foragers to arrive after exposure of the colony,[2]; 13 remaining of 17 active foragers,≤ 15 min
same,Forager force of the colony activated,"[2]; colony with 17 active marked foragers, starved 1 day, eucalyptol inserted after 30 min",entire forager force of the colony was activated
same,Number of foragers arriving at the feeder after exposure of the colony,"[2]; of 17 active foragers, 4 had arrived in the 30 min before exposure",13 foragers
same,Effect on numbers of foragers leaving the nest in search for food,[1],strongest response
